Laboratory results published in patent US20070082908A1, “Bicycle pyrazole derivative” (DAINIPPON SUMITOMO PHARMA CO., LTD., priority 2003, published 2007).
pIC50: −log10 of the molar value. Counter-ions that a name gives are not always drawn.

What follows are compounds tested against T1, human DPP IV (Homo sapiens, UniProt P27487) (assay: In vitro DPP-IV inhibitory effect measurement test (human serum, fluorogenic substrate Gly-Pro-MCA)). Conditions: human serum diluted 10-fold as enzyme source; substrate Glycyl-L-Proline 4-Methyl-Coumaryl-7-Amide 100 μM; room temperature; read-out: Inhibitory activity against human DPP IV IC50.
T1 construct: Human serum containing DPP-IV enzyme was used in an experiment after being diluted with assay buffer; from tissue; host or cells: human serum (diluted 10-fold)
T1 sequence (P27487 39-766 limits assumed): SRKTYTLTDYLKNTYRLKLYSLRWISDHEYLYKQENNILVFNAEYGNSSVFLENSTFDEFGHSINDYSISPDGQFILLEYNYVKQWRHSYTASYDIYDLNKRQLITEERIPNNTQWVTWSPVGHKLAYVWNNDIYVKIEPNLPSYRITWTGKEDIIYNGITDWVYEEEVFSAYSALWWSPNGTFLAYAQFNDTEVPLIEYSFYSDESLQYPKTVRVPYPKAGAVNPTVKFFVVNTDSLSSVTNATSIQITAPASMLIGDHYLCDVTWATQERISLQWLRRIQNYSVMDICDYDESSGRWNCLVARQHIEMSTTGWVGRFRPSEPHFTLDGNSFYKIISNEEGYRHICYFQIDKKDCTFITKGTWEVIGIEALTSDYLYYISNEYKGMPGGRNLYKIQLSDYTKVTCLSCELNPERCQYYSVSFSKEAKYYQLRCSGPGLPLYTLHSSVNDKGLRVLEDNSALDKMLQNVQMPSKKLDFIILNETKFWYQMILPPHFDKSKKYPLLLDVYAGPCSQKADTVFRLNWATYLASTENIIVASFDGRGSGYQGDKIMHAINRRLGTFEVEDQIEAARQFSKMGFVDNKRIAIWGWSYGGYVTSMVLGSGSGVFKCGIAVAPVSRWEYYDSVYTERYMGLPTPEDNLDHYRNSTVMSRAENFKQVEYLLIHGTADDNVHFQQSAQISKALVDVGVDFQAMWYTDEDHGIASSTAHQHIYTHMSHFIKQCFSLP
Assay type: biochemical
Experimental: In Vitro DPP-IV Inhibitory Effect Measurement Test
Human serum containing DPP-IV enzyme was used in an experiment after being diluted with assay buffer (25 mM Tris-HCl, 140 mM NaCl, 10 mM KCl, pH 7.9) (finally, diluted 10-fold). Each of solutions of each test compound having various concentrations was added to the diluted serum and the resulting mixture was incubated at room temperature. Then, a substrate (Glycyl-L-Proline 4-Methyl-Coumaryl-7-Amide, Peptide Laboratories Co., Ltd.) was added thereto to a final concentration of 100 μM and the reaction was carried out at room temperature. Acetic acid was added to the reaction mixture to a final concentration of 12.5% to terminate the reaction, and the intensity of fluorescence at an excitation wavelength of 360 nm and a measuring wavelength of 460 nm was measured by the use of a fluorescent plate reader. A compound concentration for 50% inhibition was calculated as an IC50 value from enzyme inhibitory activity values obtained by adding each test compound to a plurality of concentrations.

Q: How did the pIC50 turn out when `COC(=O)c1cn2nc(N3CCC[C@@H](N)C3)c(Cc3ccccc3Cl)c2c(=O)[nH]1` [Example 16] was run?
A: 8.60

Q: How did the pIC50 turn out when `N[C@@H]1CCCN(c2nn3cc[nH]c(=O)c3c2Cc2ccccc2Cl)C1` [Example 3, 2-[(3R)-3-Aminopiperidin-1-yl]-3-(2-chlorobenzyl)pyrazolo[1,5-a]pyrazin-4(5H)-one hydrochloride] was run?
A: 7.52

Q: How did the pIC50 turn out when `Cc1c(C)n2nc(N3CCC[C@@H](N)C3)c(Cc3ccccc3Cl)c2c(=O)n1CC(=O)c1ccccc1` [Example 18] was run?
A: 7.35

Q: With `N[C@@H]1CCCN(c2nn3ccn(CC(=O)c4ccccc4)c(=O)c3c2Cc2ccccc2Cl)C1` [Example 8, 2-[(3R)-3-Aminopiperidin-1-yl]-3-(2-chlorobenzyl)-5-(2-oxo-2-phenylethyl)pyrazolo[1,5-a]pyrazin-4(5H)-one hydrochloride] as the compound, how does the pIC50 read?
A: 8.15

Q: `N[C@@H]1CCCN(c2nn3cc(C(=O)O)[nH]c(=O)c3c2Cc2cc(F)ccc2Cl)C1` [Example 7, 2-[(3R)-3-Aminopiperidin-1-yl]-3-(2-chloro-5-fluorobenzyl)-4-oxo-4,5-dihydropyrazolo[1,5-a]pyrazine-6-carboxylic acid methanesulfonate] was tested. Which pIC50 did it give?
A: 9.15

Q: How did the pIC50 turn out when `N[C@@H]1CCCN(c2nn3cc(-c4ccccc4)[nH]c(=O)c3c2Cc2ccccc2Cl)C1` [Example 5, 2-[(3R)-3-Aminopiperidin-1-yl]-3-(2-chlorobenzyl)-6-phenylpyrazolo[1,5-a]pyrazin-4(5H)-one hydrochloride] was run?
A: 7.09

Q: How did the pIC50 turn out when `N[C@@H]1CCCN(c2nn3cn[nH]c(=O)c3c2Cc2ccccc2Cl)C1` [Example 19] was run?
A: 7.82

Q: How did the pIC50 turn out when `COc1ccccc1C(=O)Cn1ccn2nc(N3CCC[C@@H](N)C3)c(Cc3ccccc3Cl)c2c1=O` [Example 9] was run?
A: 7.15

Q: How did the pIC50 turn out when `COc1cccc(C(=O)Cn2ccn3nc(N4CCC[C@@H](N)C4)c(Cc4ccccc4Cl)c3c2=O)c1` [Example 13] was run?
A: 8.21

Q: With `N[C@@H]1CCCN(c2nn3cnn(Cc4nccc5ccccc45)c(=O)c3c2Cc2ccccc2Cl)C1` [Example 35, 2-[(3R)-3-Aminopiperidin-1-yl]-3-(2-chlorobenzyl)-5-(isoquinolin-1-ylmethyl)pyrazolo[1,5-d][1,2,4]triazin-4(5H)-one hydrochloride] as the compound, how does the pIC50 read?
A: 8.64

Q: How did the pIC50 turn out when `Cn1c(C(N)=O)cn2nc(N3CCC[C@@H](N)C3)c(Cc3ccccc3Cl)c2c1=O` [Example 21] was run?
A: 7.89

Q: `Cn1ncn2nc(N3CCC[C@@H](N)C3)c(Cc3ccccc3Cl)c2c1=O` [Example 33, 2-[(3R)-3-Aminopiperidin-1-yl]-3-(2-chlorobenzyl)-5-methylpyrazolo[1,5-d][1,2,4]triazin-4(5H)-one hydrochloride] was tested. Which pIC50 did it give?
A: 7.92

Q: How did the pIC50 turn out when `N#Cc1ccccc1Cn1ccn2nc(N3CCC[C@@H](N)C3)c(Cc3ccccc3Cl)c2c1=O` [Example 12] was run?
A: 7.62

Q: How did the pIC50 turn out when `N[C@@H]1CCCN(c2nn3cnn(CC(=O)c4ccccc4)c(=O)c3c2Cc2ccccc2Cl)C1` [Example 34, 2-[(3R)-3-Aminopiperidin-1-yl]-3-(2-chlorobenzyl)-5-(2-oxo-2-phenylethyl)pyrazolo[1,5-d][1,2,4]triazin-4(5H)-one hydrochloride] was run?
A: 8.55

Q: How did the pIC50 turn out when `COC(=O)Cc1c(C(=O)OC)[nH]c(=O)c2c(Cc3ccccc3Cl)c(N3CCC[C@@H](N)C3)nn12` [Example 38, Methyl 2-[(3R)-3-aminopiperidin-1-yl]-3-(2-chlorobenzyl)-7-(2-methoxy-2-oxoethyl)-4-oxo-4,5-dihydropyrazolo[1,5-a]pyrazine-6-carboxylate hydrochloride] was run?
A: 8.02

Q: With `N[C@@H]1CCCN(c2nn3ccn(CCc4ccccc4)c(=O)c3c2Cc2ccccc2Cl)C1` [Example 14] as the compound, how does the pIC50 read?
A: 7.21

Q: With `CCc1cn2nc(N3CCC[C@@H](N)C3)c(Cc3ccccc3Cl)c2c(=O)n1CC(=O)c1ccccc1` [Example 26] as the compound, how does the pIC50 read?
A: 7.55

Q: How did the pIC50 turn out when `CCOC(=O)c1cn2nc(N3CCC[C@@H](N)C3)c(Cc3ccccc3Cl)c2c(=O)[nH]1` [Example 41, Ethyl 2-[(3R)-3-aminopiperidin-1-yl]-3-(2-chlorobenzyl)-4-oxo-4,5-dihydropyrazolo[1,5-a]pyrazine-6-carboxylate hydrochloride] was run?
A: 8.68

Q: How did the pIC50 turn out when `Cn1c(C#N)cn2nc(N3CCC[C@@H](N)C3)c(Cc3ccccc3Cl)c2c1=O` [Example 20] was run?
A: 8.30

Q: With `COC(=O)c1[nH]c(=O)c2c(Cc3ccccc3Cl)c(N3CCC[C@@H](N)C3)nn2c1C` [Example 1, Methyl 2-[(3R)-3-aminopiperidin-1-yl]-3-(2-chlorobenzyl)-7-methyl-4-oxo-4,5-dihydropyrazolo[1,5-a]pyrazine-6-carboxylate hydrochloride] as the compound, how does the pIC50 read?
A: 7.70

Q: How did the pIC50 turn out when `CC(C)Oc1cccc(C(=O)Cn2ccn3nc(N4CCC[C@@H](N)C4)c(Cc4ccccc4Cl)c3c2=O)c1` [Example 11] was run?
A: 7.60

Q: With `N[C@@H]1CCCN(c2nn3cc(C(=O)O)[nH]c(=O)c3c2Cc2ccccc2Cl)C1` [Example 17] as the compound, how does the pIC50 read?
A: 8.80

Q: With `Cc1cn2nc(N3CCC[C@@H](N)C3)c(Cc3ccccc3Cl)c2c(=O)n1C` [Example 4, 2-[(3R)-3-Aminopiperidin-1-yl]-3-(2-chlorobenzyl)-5,6-dimethylpyrazolo[1,5-a]pyrazin-4(5H)-one hydrochloride] as the compound, how does the pIC50 read?
A: 7.43

Q: With `CCOC(=O)c1cn2nc(N3CCC[C@@H](N)C3)c(Cc3cc(F)ccc3Cl)c2c(=O)[nH]1` [Example 32, Ethyl 2-[(3R)-3-aminopiperidin-1-yl]-3-(2-chloro-5-fluorobenzyl)-4-oxo-4,5-dihydropyrazolo[1,5-a]pyrazine-6-carboxylate methanesulfonate] as the compound, how does the pIC50 read?
A: 9.05

Q: How did the pIC50 turn out when `N[C@@H]1CCCN(c2nn3ccn(Cc4nccc5ccccc45)c(=O)c3c2Cc2ccccc2Cl)C1` [Example 10] was run?
A: 8.55
